# Data from patent publication US20060275769A1 (priority 2003, published 2006).
# “Also recorded” adds a separate entry of the source.
# Tests used:
# KSHV-infected DMVEC [1] = conditions: cited from earlier work
# KSHV-infected DMVEC [2] = conditions: cited from earlier work; remark: listed apart in the source
# KSHV-infected DMVEC [3] = assay: Inhibition of KSHV-induced spindle cell formation by PMO antisense gene silencing; format: cell-based, human; conditions: for effect on KSHV-induced spindle cell formation / phenotypic inhibition (in words): PMO antisense silencing; for Extent of PMO-induced Inhibition of Spindle Cell Formation / Phenotype Inhibition (inhibition of spindle cell formation): gene-specific PMO antisense
# Description: Antisense Gene Silencing using PMOs. […] Silencing of such genes precluded progression into the transformed phenotype when silencing occurred prior to transformation, or induced reversion to the normal state when silencing occurred after induction of the transformed state (see TABLE 2 below).
# (§1) Introduction of antisense PMO into KSHV-infected DMVEC. Antisense PMO molecules, for delivery purposes, are typically converted to a paired duplex together with a partially complementary cDNA oligonucleotide in the weakly basic delivery reagent ethoxylated polyethylenimine (EPEI) (Summerton, supra). The anionic complex binds to the cell surface, is taken up by endocytosis and eventually released into the cytosol. A protocol for optimum uptake of antisense PMO in immortalized DMVEC was developed using a modification of the EPEI method. Briefly, uninfected, immortalized DMVECs were incubated for 3 hours at 37° C. with 0.6 nmol/well FITC-PMO complexed with EPEI according to the manufacturer's instructions (Genetools, LLC, One Summerton Way, Philomath, OR 97370) (e.g., 1.25 n Mol oligomer with 2.5 μl EPEI reagent per 35 mm dish, allowing for sufficient antisense uptake without non-specific EPEI-induced toxicity). The PMOs were labeled with FITC to allow for monitoring of loading efficiency by fluorescence microscopy.
# (§2) Specifically, DMVEC were infected with KSHV, plated in 35 mm dishes and allowed to grow to about 90% confluence. For treatment, KSHV-infected cells were treated with the anti-c-Kit PMO-antisense oligomer-EPEI delivery reagent complex and incubated for 3 hours at 37° C. in serum-free medium to allow for oligomer uptake. A titration experiment testing a range of different oligomer/EPEI volumes was used to determine that loading 1.25 nmol oligomer with 2.5 μl EPEI reagent per 35 mm dish allowed efficient antisense uptake without non-specific EPEI-induced toxicity. Control (mock-treated) DMVEC cultures were loaded with EPEI reagent and sterile water or sterile water alone. Upon removal of the oligomer-EPEI solution, cell monolayers were rinsed in serum-free medium fed with complete medium and examined daily for one week by phase microscopy for evidence of phenotypic change.
# KSHV-infected DMVEC [4] = assay: XTT proliferation assay after PMO loading; format: cell-based, human; conditions: PMO antisense silencing
# Method: Proliferation assays, and loading of cells with PMOs. Proliferation of KSHV-infected DMVEC was quantified using an XTT (2,3-bis-(2-methoxy-4-nitro-5-sulfophenyl)-2H-tetrazolium-5-carboxanilide, disodium salt)-based assay. KSHV-infected cells were added to Primaria 96-well trays (Becton Dickinson) at 1×10^4 or 5×10^4 cells/well. XTT (Roche, Molecular Biochemicals, Indianapolis, Ind.) was added 48 hours later according to the manufacturer's instructions. Absorbance was read after 4 to 6 hours on a microplate reader.
# Briefly, cells were plated in 96-well trays at a density approaching confluence (5×10^4 cells per well) in 100 μl of complete medium. PMOs were loaded the following day in a total of 100 μl (0.5 μl PMO, 0.5 μl EPEI, 49 μl H2O and 50 μl serum free medium) with reagent mixing as described by the manufacturer (GeneTools). Controls included a FITC PMO control oligonucleotide, EPEI only or H2O only. Each variable was performed in quadruplicate. Fresh complete medium was replaced 4 hours after loading. Cells were cultured for 4 days to allow for multi-layered cell growth post-confluence in the absence of any growth inhibition. XTT was added on day 4 of culture and the a bsorbance read 4 hrs later on a microplate reader. Cell proliferation (growth) values are given as percentage inhibition values, relative to cells without PMO, which are adjusted to 100%.
# KSHV-infected DMVEC [5] = assay: Focus formation / contact inhibition by phase microscopy after c-Kit PMO loading; format: cell-based, human; conditions: 1.25 nmol PMO and 2.5 μl EPEI per 35 mm dish, one week post-loading
# Method: Proof of principal for target validation; silencing of c-Kit gene expression.
# as §2
# immortalized DMVEC = assay: Uptake and persistence of FITC-labeled PMO by fluorescence microscopy; format: cell-based, human; conditions: FITC-labeled PMO with EPEI, at 3 hours
# Description: as §1
# Cellular distribution of introduced FITC-labeled POM antisense molecules. […] Specifically, the c Kit antisense PMO molecules were initially concentrated in intracellular vesicles (endosomes) at 3 hours in about 70% of the cells, and distributed within the cytoplasm at 66 hours.
# KSHV-infected DMVEC [6] = assay: Inhibition of KSHV-induced spindle cell formation by PMO antisense gene silencing; format: cell-based, human
Compound,effect on KSHV-induced spindle cell formation / phenotypic inhibition (in words) (KSHV-infected DMVEC [3]),Extent of PMO-induced Inhibition of Spindle Cell Formation (KSHV-infected DMVEC [3]),Phenotype Inhibition (inhibition of spindle cell formation) (KSHV-infected DMVEC [3]),inhibition of KSHV-induced cellular proliferation (in words) (KSHV-infected DMVEC [4]),further results
Cc1ccc(NC(=O)c2ccc(CN3CCN(C)CC3)cc2)cc1Nc1nccc(-c2cccnc2)n1 [STI 571],–,–,–,–,"nonspecific cytotoxicity (cell viability controls) (KSHV-infected DMVEC [1]): not due to nonspecific cytotoxicity; proliferative response of KSHV-infected DMVEC to exogenous SCF (KSHV-infected DMVEC [1]; exogenous SCF): inhibited; phenotype after removal of the compound (KSHV-infected DMVEC [2]; removal of STI 571, even after exposure to a 10 μM dose): regeneration of the transformed phenotype; focus formation (KSHV-infected DMVEC [2]; treatment to inhibit endogenous c-Kit tyrosine kinase activity): focus formation is inhibited"
AGCATGTCACGCACAGTGGCCTCAT (all phosphorodiamidate morpholino (PMO)) [ANGPTL2],intermediate inhibitory effects,intermediate,Intermediate,–,–
AGCTCGTGCTCTGCACACTCTGCAT (all phosphorodiamidate morpholino (PMO)) [NOV],fully reversed spindle cell formation,full,Full,–,–
AGCTTCATGTTGGAGGTGTTCG (all phosphorodiamidate morpholino (PMO)) [IFACTOR],little or no affect on KSHV-induced spindle cell formation,none,None,relatively little or no significant inhibition,–
CGCCTCTCATCGCGGTAGCTGCG (all phosphorodiamidate morpholino (PMO); further chemistry not fully specified) [KIT],fully reversed spindle cell formation,full,Full,substantial inhibition of KSHV-induced cellular proliferation,foci formation / contact-inhibited growth (KSHV-infected DMVEC [5]; listed as c-Kit antisense PMO oligomer): did not develop foci; also recorded: did not progress to spindle cell and foci formation; foci formation / contact-inhibited growth (KSHV-infected DMVEC [5]; listed as c-Kit-specific antisense PMO oligonucleotides): did not develop foci; cells with PMO concentrated in intracellular vesicles (uptake) (immortalized DMVEC): about 70%
GAAGAGATGCAGATCCATCGTTCTG (all phosphorodiamidate morpholino (PMO)) [RDC-1],fully reversed spindle cell formation,full,Full,substantial inhibition of KSHV-induced cellular proliferation,effect on KSHV-induced spindle cell formation / phenotypic inhibition (in words) (KSHV-infected DMVEC [6]; listed as RDC-1-specific PMO): full phenotypic inhibition
GCCGAGGACATTGGGGAGGGAGGCG (all phosphorodiamidate morpholino (PMO)) [LMO2],little or no affect on KSHV-induced spindle cell formation,none,–,–,–
GGAGCACGGTCCAGGCGAAGCGCAT (all phosphorodiamidate morpholino (PMO)) [LOX],fully reversed spindle cell formation,full,Full,–,–
GGCAGCCCACTCTCTCGGCAGCATG (all phosphorodiamidate morpholino (PMO)) [IGFBP2],fully reversed spindle cell formation,full,Full,substantial inhibition of KSHV-induced cellular proliferation,–
GGCTCCATCTTGGGCTCTGGGCTCC [FLJ14103],fully reversed spindle cell formation,full,–,–,–
GGGTCTCCTCGGATCAGGCGCG (all phosphorodiamidate morpholino (PMO)) [INSR],intermediate inhibitory effects,intermediate,Intermediate,substantial inhibition of KSHV-induced cellular proliferation,–
GTCAGTTTACTCATGTCATCTATTG (all phosphorodiamidate morpholino (PMO)) [KIAA0367],intermediate inhibitory effects,intermediate,Intermediate,substantial inhibition of KSHV-induced cellular proliferation,effect on KSHV-induced spindle cell formation / phenotypic inhibition (in words) (KSHV-infected DMVEC [6]; listed as KIAA0367-specific PMO): intermediate phenotypic inhibition
Osteopontin,–,–,None,relatively little or no significant inhibition,–
TGAATAAGCAACAATGTAGCTTCAT (all phosphorodiamidate morpholino (PMO)) [MFAP3],little or no affect on KSHV-induced spindle cell formation,none,None,relatively little or no significant inhibition,effect on KSHV-induced spindle cell formation / phenotypic inhibition (in words) (KSHV-infected DMVEC [6]; listed as MFAP-specific PMO): no phenotypic inhibition
TTAACTCCCATCCTACGTTTAGTCA (all phosphorodiamidate morpholino (PMO)) [Neuritin],fully reversed spindle cell formation,full,Full,substantial inhibition of KSHV-induced cellular proliferation,–
